Two molecules from article PMC11063903, “Engineering a human P2X2 receptor with altered ligand selectivity in yeast” (The Journal of Biological Chemistry, 2024) can be followed below.

Residue numbers refer to the chain shown, from its start.

One experiment addresses T1, P2X2 A304W (Homo sapiens, UniProt Q9UBL9, A304W).
T1 construct: expressed in transfected cells; host or cells: S. cerevisiae BY4741 background
T1 sequence (Q9UBL9 1-471 A304W): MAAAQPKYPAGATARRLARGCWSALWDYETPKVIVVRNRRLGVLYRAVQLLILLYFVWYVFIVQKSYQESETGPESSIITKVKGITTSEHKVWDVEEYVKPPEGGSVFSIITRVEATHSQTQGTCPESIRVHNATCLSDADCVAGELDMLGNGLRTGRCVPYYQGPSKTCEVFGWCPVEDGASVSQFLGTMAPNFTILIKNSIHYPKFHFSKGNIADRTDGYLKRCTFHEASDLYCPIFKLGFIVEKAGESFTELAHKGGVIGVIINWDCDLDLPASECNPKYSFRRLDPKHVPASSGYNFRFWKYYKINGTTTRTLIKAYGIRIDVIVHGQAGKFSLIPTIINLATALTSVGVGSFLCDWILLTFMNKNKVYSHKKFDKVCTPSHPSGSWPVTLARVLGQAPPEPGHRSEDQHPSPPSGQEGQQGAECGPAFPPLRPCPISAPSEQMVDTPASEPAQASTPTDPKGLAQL
The experiment can be described thus: Fast GCaMP-mScarletI assay in yeast, P2X2 A304W. The format is cell-based. Conditions: for Bottom, best fit value / Hillslope, best fit value / Top, best fit value: four-parameter logistic fit of ΔF/ΔT; for Bottom, best fit value / Hillslope, best fit value / Top, best fit value / EC50: n = 3; for EC50: four-parameter logistic fit, unit inferred, unit M, read-out: EC50, best fit value. As for the experimental part: (§1) Figure 4 Unnatural-ligand gating in LBD libraries.A, WT P2X2 was tested with 1 mM ATP, 500 μM AMP-PNP, and compared to ATP with the broken receptor (K81C K83C) control with 1 mM ATP in the fast GCaMP-mScarletI assay (n = 3). […] B, heat map summarizing AMP-PNP signaling (ΔF/ΔT, fast GCaMP-mScarletI assay) in the site-saturation libraries (n = 2–3). All values are normalized to WT P2X2 with saturating amounts of AMP-PNP (500 μM) and therefore represent low signal (ΔF/ΔT) compared to the ATP ligand. C, F301W, F303Y, and A304W were combinatorially combined and tested against the WT, K81C K83C broken P2X2, and the single mutant clones with both ATP (1 mM, black) and AMP-PNP (500 μM, pink). […] Values here represent signal onset and are not normalized to a positive control (n = 2–5). D–K, dose response of each P2X variant with both ATP (black) and AMP-PNP (pink) in the fast GCaMP-mScarletI assay (n = 3). Statistics were performed via one-way ANOVA with Dunnett’s multiple comparisons with to the “broken” K81C K83C negative control. ∗ represents a p value ≤0.05, ∗∗ is p ≤ 0.01, and ∗∗∗ is p ≤ 0.001.
Given that the yeast-based screen seemed to recapitulate important structural and functional features of human ion channel function, we hypothesized that it might be possible to engineer new P2X2 functionalities in yeast, including new ligand specificity. […] We screened our 133-member library in the presence of 500 μM AMP-PNP (Fig. S7). While the AMP-PNP signal was uniformly low, three substitutions (F301W, F303Y, and A304W) increased signaling 2.5 to 2.8 times relative to the negative control receptor (Figs. 4B, and S7, D, F, and G). To gain a more complete view of the properties of these mutants, dose–response curves were generated with ATP and AMP-PNP (Fig. 4, D–G, and Table S2).
(§2) GCaMP assays were performed as follows. P2X2 GCaMP strains were designed with a bi-cistronic reporter, in which the GCaMP protein was followed by a 2A peptide and a mScarletI reporter ([53]). The co-translated mScarletI was designed to act as a control for plasmid loss, GCaMP breakage via nonsense mutation, and contamination. […] P2X2-GCaMP strains were cultured and induced as previously described. Samples were induced for 24 h to allow for the accumulation of the mature GCaMP protein. Cells were washed three times in 0.1 M MES/Tris buffer and resuspended with MES/Tris with supplemental calcium. Cells were loaded onto a black, clear bottom microplate and imaged on a FlexStation3 plate reader. Samples were imaged in “flex” mode. Samples were imaged for 48 s at an interval of 1.6 s. Fluorescence was measured with an excitation at 485 nm, and emission 525 nm. At the 21 s mark, 100 μl ligand solution was transferred to the cells. For strains with mScarlet, fluorescence was read with excitation 570 nm/emission 610 nm. Slopes were calculated from the last 6 points of measurement and were normalized to the positive control samples. Any replicate in which the mScarlet value was measured to be over 2 standard deviations less than the mean for that set was discarded from further analysis.
(§3) For multiple comparisons in the site-saturation screening data, One-way ANOVA with Dunnett’s multiple comparisons test was performed where every sample was compared to the “broken” negative control. Significance was plotted where ∗ represents a p value ≤0.05, ∗∗ is p ≤0.01, and ∗∗∗ is p ≤0.001. Dose–response curves were fit with nonlinear regression software using a four-parameter logistic curve. All statistics were calculated and plotted in Graphpad Prism software.

The target of the next experiment is T2, P2X2 F301W+A304W (Homo sapiens, UniProt Q9UBL9, A304W/F301W).
T2 construct: expressed in transfected cells; host or cells: S. cerevisiae BY4741 background
T2 sequence (Q9UBL9 1-471 F301W/A304W): T1 sequence (Q9UBL9 1-471 A304W) with F301W
The experiment can be described thus: Fast GCaMP-mScarletI assay in yeast, P2X2 F301W+A304W. The format is cell-based. Conditions: for Bottom, best fit value / Hillslope, best fit value / Top, best fit value: four-parameter logistic fit of ΔF/ΔT. The protocol:
as §1
The combined mutations were synergistic, with F303Y + A304W having a predicted additive effect of ca. Ten-fold, relative to the 73-fold seen.
as §2, §3

In the case of `Nc1ncnc2c1ncn2[C@@H]1O[C@H](COP(=O)(O)OP(=O)(O)NP(=O)(O)O)[C@@H](O)[C@H]1O` [AMP-PNP], the “activity compared to the wild-type” value on P2X2 A304W (AMP-PNP dose-response, high ligand concentrations) turned out to be 55.87 fold. For the same molecule, on P2X2 A304W, the “Bottom, best fit value” was -0.1131; the “Hillslope, best fit value” is listed as 1.702; the “Top, best fit value” was 50.72; the EC50 (in general, the concentration at which the effect is half-maximal) worked out at 621 µM. For the same molecule, on P2X2 F301W+A304W (at 500 μM AMP-PNP), the “improvement compared to the WT channel (rate of signal onset ΔF/ΔT)” value is on record as 24 fold. Besides, on P2X2 F301W+A304W (n = 3), the “Bottom, best fit value” was -0.492; the “Hillslope, best fit value” came to 1.649; the “Top, best fit value” is recorded as 81.84.

As to `Nc1ncnc2c1ncn2[C@@H]1O[C@H](COP(=O)(O)OP(=O)(O)OP(=O)(O)O)[C@@H](O)[C@H]1O` [ATP], at P2X2 A304W, the “Bottom, best fit value” was 0.89; the “Hillslope, best fit value” was determined as 2.41; the “Top, best fit value” is 67.64; the EC50 came to 16.6 µM. At P2X2 F301W+A304W (n = 3), the “Bottom, best fit value” is -5.28; the “Hillslope, best fit value” turned out to be 1.07; the “Top, best fit value” was determined as 207.50. Besides, the EC50 on P2X2 F301W+A304W (four-parameter logistic fit, n = 3, unit inferred, unit M, read-out: EC50, best fit value) turned out to be 20.7 µM.
